Test results reported in paper PMC8068801, “Novel Benzenesulfonate Scaffolds with a High Anticancer Activity and G2/M Cell Cycle Arrest” (Cancers, 2021).
Values belong to the molecule of their own block, whether it stands above or below them.

Legend:
NHDF cells = assay: MTS cytotoxicity assay, normal fibroblasts NHDF; format: cell-based; conditions: NHDF normal human fibroblasts, 72 h incubation
Source text: (§1) M. Rusin from the Maria Sklodowska-Curie Memorial Cancer Centre and Institute of Oncology in Gliwice, Poland. […] G. Kramer-Marek from the Institute of Cancer Research in London, United Kingdom. The human suspension chronic myelogenous leukemia cell line K562 and pancreas ductal adenocarcinoma cell line PANC-1 were purchased from Sigma-Aldrich (St. Louis, MO, USA), while the normal human dermal fibroblasts cell line NHDF were purchased from PromoCell. […] Each medium contained a combination of two antibiotics: penicillin and streptomycin (1% v/v; Gibco). All of these cell lines were grown under standard conditions at 37 °C with a 5% CO2 humidified atmosphere. Moreover, all of the cell lines were routinely tested for mycoplasma using the PCR technique with specific Mycoplasma primers to confirm that there was no contamination.
(§2) The assay was performed following a 72 h incubation with the various concentrations of the tested compounds. Then, 100 µL DMEM without phenol red with 20 µL of the CellTiter 96®AQueous One Solution-MTS (Promega, Promega, WI, USA) was added to each well and incubated for 1 h or 3 h (PANC-1) at 37 °C. The optical densities of the samples were measured at 490 nm using a multi-plate reader (Synergy 4, BioTek, Winooski, VT, USA). […] Each individual compound was tested in triplicate in a single experiment with each experiment being performed three or four times.

K562 cells = assay: MTS cytotoxicity assay, K562; format: cell-based, human; conditions: for IC50: Homo sapiens, K562, 72 h incubation, MTS; for Selectivity index, K562: normal fibroblasts NHDF vs K562
Source text: as §1, §2

HCT 116 p53^−/− cells = assay: MTS cytotoxicity assay, HCT 116 p53-/-; format: cell-based, human; conditions: for IC50: Homo sapiens, HCT 116 p53^−/−, 72 h incubation, MTS; for Selectivity index, HCT 116 p53 −/−: NHDF vs HCT 116 p53 −/−
Source text: as §1, §2

U-251 cells = assay: Immunoblotting with densitometry, U-251; format: cell-based, human; conditions: for PARP/Reference 89 kDa, densitometric intensity ratio / caspase-9/Reference 37-35 kDa, densitometric intensity ratio: control 0.330; for BID/Reference 22 kDa, densitometric intensity ratio / Cathepsin b/Reference 44 kDa, densitometric intensity ratio / HIF-1α/Reference 120 kDa, densitometric intensity ratio / PARP/Reference 116 kDa, densitometric intensity ratio / caspase-9/Reference 47 kDa, densitometric intensity ratio / cdc2/Reference 34 kDa, densitometric intensity ratio / cyclin E1/Reference 48 kDa, densitometric intensity ratio / p21/Reference 21 kDa, densitometric intensity ratio / p53/Reference 53 kDa, densitometric intensity ratio: control 1.000; for Cathepsin b/Reference 27 kDa, densitometric intensity ratio: control 2.837; for Cathepsin b/Reference 22 kDa, densitometric intensity ratio: control […]
Experimental: The K562 and U-251 cells were seeded in 3 cm Petri dishes (Nunc) at a density of 500,000 cells per well and incubated overnight. […] Next, the cell pellets were resuspended in an RIPA buffer containing a Halt Protease Inhibitor Cocktail and a Halt Phosphatase Inhibitor Cocktail along with 0.5 M EDTA (all from Thermo Scientific, Waltham, MA, USA) and lysed on ice for 20 min. Then, the obtained lysates were sonicated and centrifuged at 10,000 rpm for 10 min at 4 °C. The supernatants were collected for further analysis. The protein concentration was measured using a Micro BCA™ Protein Assay Kit (Thermo Scientific) according to the manufacturer’s instructions. Equal amounts of the proteins (16 μg) were electrophoresed on SDS-Page gels and transferred onto nitrocellulose membranes. The membranes were blocked in 5% non-fat milk prepared in TPBS (PBS containing 0.1% Tween-20) for 1 h. After blocking, the membranes were incubated with the specific primary antibodies (all from Cell Signaling) at a 1:1000 dilution—cyclin E, cdc2, PARP, AIF, BID, p53, p21^Waf1/Cip1, HIF-1α, cathepsin B and caspase-9—and at a 1:2000 dilution for the reference proteins—vinculin, β-actin and GAPDH—overnight at 4 °C. The next day, the membranes were washed in TPBS and incubated with horseradish peroxidase (HRP)-conjugated secondary antibodies for 1 h at room temperature. Lastly, the membranes were washed in TPBS and incubated with a SuperSignal™ West Pico Chemiluminescent Substrate (Thermo Scientific). The chemiluminescence signals were captured using a ChemiDoc™ XRS + System (Biorad). The experiments were performed at least four to five times. The densitometric analysis was conducted using ImageJ software (Wayne Rasband, National Institutes of Health, Bethesda, MD, USA).
The band intensity of tested proteins (p53, cyclin E1, cdc2, p21, HIF-1α, cathepsin b, PARP, caspase-9, BID, AIF) were analyzed by densitometry readings/intensity ratio, using ImageJ software (NIH) and were normalized to the corresponding reference proteins (GAPDH, vinculin or β-actin) value.
The densitometric readings/intensity ratio data from four/five independent experiments (compared to control): […]
p53/ Refer- p21/ Refer- cdc2/ Refer- Cyclin E1/ HIF-1α/ Cathepsin b/Reference ence ence ence Reference Reference
PARP/Reference BID/ Reference Caspase-9/Reference […]

MCF-7 cells = assay: MTS cytotoxicity assay, MCF-7; format: cell-based, human; conditions: for IC50: Homo sapiens, MCF7, MCF-7, 72 h incubation, MTS; for Selectivity index, MCF-7: NHDF vs MCF-7
Source text: as §1, §2

BRK = target: T1, BRK (Homo sapiens, UniProt Q13882); assay: Tyrosine kinase assay (Kinase Selectivity TK-2, ADP-Glo); format: biochemical; conditions: read-out: Inhibitory Effect of the Tyrosine Kinase Activity, BRK
T1 construct: purchased Promega
T1 sequence (Q13882 whole entry): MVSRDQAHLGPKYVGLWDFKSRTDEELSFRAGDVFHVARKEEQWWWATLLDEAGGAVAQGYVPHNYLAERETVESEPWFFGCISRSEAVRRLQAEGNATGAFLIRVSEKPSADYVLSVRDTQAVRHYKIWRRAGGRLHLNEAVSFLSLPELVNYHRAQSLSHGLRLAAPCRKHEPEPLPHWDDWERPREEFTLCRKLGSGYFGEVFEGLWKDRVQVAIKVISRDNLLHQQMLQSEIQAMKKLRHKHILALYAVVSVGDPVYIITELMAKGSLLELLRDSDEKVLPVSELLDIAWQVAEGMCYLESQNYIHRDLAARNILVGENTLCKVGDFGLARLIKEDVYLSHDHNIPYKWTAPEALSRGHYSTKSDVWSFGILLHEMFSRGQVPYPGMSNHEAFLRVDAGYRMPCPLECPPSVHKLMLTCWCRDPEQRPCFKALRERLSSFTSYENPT
Experimental: (§3) Assays using the Kinase Selectivity TK-2 profiling systems and ADP-Glo Kinase Assay (both from Promega) were performed to determine the inhibition of the non-receptor tyrosine kinases. The protocol was previously designed and described by our group in reports. The experiments were performed at least four times. The data are expressed as the percentage of the inhibition activity of tyrosine kinase after treatment with the tested derivatives.

BTK = target: T2, BTK (Homo sapiens, UniProt Q06187); assay: as above; format: biochemical; conditions: read-out: Inhibitory Effect of the Tyrosine Kinase Activity, BTK
T2 construct: purchased Promega
T2 sequence (Q06187 whole entry): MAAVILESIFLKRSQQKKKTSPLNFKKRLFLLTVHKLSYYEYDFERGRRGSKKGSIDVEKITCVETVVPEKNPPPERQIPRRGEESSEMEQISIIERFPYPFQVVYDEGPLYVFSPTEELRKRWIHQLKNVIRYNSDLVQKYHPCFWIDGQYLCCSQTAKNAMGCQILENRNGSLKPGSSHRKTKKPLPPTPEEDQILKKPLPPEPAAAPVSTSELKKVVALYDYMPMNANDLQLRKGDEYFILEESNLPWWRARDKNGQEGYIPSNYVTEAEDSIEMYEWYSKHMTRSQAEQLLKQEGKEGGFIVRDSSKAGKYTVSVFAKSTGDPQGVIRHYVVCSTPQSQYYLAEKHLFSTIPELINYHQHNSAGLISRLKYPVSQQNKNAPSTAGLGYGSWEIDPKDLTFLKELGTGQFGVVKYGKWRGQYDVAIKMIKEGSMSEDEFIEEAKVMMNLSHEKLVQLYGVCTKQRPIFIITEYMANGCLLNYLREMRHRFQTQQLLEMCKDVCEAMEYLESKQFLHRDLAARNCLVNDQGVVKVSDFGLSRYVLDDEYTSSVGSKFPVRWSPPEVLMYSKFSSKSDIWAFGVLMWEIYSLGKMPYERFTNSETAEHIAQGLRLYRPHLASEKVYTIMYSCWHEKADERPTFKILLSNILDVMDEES
Experimental: as §3

ABL1 = target: T3, ABL1 (Homo sapiens, UniProt P00519); assay: as above; format: biochemical; conditions: read-out: Inhibitory Effect of the Tyrosine Kinase Activity, ABL1
T3 construct: purchased Promega
T3 sequence (P00519 whole entry): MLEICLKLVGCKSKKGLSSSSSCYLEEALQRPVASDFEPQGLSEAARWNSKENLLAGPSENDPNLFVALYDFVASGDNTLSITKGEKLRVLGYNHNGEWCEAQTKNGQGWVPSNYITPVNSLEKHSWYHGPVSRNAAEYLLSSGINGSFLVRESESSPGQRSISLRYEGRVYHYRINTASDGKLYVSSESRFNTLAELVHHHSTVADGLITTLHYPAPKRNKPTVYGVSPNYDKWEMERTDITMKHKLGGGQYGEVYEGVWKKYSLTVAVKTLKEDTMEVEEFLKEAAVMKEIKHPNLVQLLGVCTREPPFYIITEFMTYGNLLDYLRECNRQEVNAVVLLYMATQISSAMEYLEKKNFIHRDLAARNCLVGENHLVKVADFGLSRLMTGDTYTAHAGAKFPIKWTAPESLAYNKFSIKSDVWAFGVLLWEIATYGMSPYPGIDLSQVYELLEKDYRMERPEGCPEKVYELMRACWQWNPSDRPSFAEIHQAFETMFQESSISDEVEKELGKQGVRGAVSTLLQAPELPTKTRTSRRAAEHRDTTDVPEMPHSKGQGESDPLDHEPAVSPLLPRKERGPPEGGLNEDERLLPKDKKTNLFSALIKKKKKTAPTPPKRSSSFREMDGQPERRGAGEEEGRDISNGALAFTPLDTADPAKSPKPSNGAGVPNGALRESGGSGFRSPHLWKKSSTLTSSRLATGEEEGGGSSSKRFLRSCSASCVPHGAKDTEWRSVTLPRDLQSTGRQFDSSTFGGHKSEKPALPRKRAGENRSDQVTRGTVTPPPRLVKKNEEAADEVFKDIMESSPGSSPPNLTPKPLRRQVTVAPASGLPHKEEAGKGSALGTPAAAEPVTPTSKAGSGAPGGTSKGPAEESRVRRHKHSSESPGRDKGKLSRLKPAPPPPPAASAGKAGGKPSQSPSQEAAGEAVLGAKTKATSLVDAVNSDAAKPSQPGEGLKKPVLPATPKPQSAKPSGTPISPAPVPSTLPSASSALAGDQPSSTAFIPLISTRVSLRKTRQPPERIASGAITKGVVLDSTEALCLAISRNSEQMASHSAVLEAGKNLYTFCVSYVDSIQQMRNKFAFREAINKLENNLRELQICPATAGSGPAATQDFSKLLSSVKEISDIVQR
Experimental: as §3

Fyn A = target: T4, Fyn A (Homo sapiens, UniProt P06241); assay: as above; format: biochemical; conditions: read-out: Inhibitory Effect of the Tyrosine Kinase Activity, Fyn A
T4 construct: purchased Promega
T4 sequence (P06241 whole entry): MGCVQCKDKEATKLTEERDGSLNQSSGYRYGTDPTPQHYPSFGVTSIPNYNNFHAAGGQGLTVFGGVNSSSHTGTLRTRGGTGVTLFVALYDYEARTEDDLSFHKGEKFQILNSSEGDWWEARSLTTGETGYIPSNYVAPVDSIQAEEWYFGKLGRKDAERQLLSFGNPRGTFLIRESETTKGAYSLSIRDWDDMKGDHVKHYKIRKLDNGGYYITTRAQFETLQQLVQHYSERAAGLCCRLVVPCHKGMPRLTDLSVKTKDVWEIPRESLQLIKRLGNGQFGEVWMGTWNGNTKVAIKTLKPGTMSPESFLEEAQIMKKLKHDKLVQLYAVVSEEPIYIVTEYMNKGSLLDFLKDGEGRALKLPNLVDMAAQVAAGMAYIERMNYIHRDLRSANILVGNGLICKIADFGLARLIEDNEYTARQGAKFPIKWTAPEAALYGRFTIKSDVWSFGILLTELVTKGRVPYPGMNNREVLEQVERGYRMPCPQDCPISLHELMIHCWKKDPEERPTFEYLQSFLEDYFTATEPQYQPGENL
Experimental: as §3

Lyn B = target: T5, Lyn B (Homo sapiens, UniProt P07948); assay: as above; format: biochemical; conditions: read-out: Inhibitory Effect of the Tyrosine Kinase Activity, Lyn B
T5 construct: purchased Promega
T5 sequence (P07948 1-491 isoform P07948-2): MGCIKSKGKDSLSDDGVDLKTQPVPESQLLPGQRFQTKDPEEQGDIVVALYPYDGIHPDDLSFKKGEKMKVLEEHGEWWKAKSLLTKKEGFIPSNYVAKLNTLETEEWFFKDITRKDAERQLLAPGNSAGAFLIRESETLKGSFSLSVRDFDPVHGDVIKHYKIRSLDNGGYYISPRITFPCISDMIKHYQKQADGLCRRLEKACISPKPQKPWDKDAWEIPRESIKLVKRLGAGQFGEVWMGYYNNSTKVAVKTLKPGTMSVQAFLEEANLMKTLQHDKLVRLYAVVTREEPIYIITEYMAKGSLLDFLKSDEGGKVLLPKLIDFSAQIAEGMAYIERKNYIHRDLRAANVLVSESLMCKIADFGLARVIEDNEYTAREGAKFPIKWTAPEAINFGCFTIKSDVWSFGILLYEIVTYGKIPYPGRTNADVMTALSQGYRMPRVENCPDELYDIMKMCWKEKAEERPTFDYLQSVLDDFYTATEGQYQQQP
Experimental: as §3

Src = target: T6, Src (Homo sapiens, UniProt P12931); assay: as above; format: biochemical; conditions: read-out: Inhibitory Effect of the Tyrosine Kinase Activity, Src
T6 construct: purchased Promega
T6 sequence (P12931 whole entry): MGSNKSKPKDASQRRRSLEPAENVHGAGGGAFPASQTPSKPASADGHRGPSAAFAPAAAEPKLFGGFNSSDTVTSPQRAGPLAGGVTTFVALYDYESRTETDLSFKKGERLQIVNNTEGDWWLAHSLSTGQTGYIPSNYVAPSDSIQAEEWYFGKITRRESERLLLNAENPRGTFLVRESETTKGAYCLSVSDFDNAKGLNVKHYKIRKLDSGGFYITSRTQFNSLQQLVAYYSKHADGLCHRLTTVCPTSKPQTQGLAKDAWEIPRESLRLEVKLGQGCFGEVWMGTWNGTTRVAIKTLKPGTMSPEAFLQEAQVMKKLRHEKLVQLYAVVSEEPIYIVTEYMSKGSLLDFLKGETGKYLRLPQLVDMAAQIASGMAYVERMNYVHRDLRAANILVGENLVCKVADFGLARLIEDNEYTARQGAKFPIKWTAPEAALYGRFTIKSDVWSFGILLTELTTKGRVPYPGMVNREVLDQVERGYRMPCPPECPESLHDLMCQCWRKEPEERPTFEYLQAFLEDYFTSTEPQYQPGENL
Experimental: as §3

CSK = target: T7, CSK (Homo sapiens, UniProt P41240); assay: as above; format: biochemical; conditions: read-out: Inhibitory Effect of the Tyrosine Kinase Activity, CSK
T7 construct: purchased Promega
Experimental: as §3

Lck = target: T8, Lck (Homo sapiens, UniProt P06239); assay: as above; format: biochemical; conditions: read-out: Inhibitory Effect of the Tyrosine Kinase Activity, Lck
T8 construct: purchased Promega
T8 sequence (P06239 whole entry): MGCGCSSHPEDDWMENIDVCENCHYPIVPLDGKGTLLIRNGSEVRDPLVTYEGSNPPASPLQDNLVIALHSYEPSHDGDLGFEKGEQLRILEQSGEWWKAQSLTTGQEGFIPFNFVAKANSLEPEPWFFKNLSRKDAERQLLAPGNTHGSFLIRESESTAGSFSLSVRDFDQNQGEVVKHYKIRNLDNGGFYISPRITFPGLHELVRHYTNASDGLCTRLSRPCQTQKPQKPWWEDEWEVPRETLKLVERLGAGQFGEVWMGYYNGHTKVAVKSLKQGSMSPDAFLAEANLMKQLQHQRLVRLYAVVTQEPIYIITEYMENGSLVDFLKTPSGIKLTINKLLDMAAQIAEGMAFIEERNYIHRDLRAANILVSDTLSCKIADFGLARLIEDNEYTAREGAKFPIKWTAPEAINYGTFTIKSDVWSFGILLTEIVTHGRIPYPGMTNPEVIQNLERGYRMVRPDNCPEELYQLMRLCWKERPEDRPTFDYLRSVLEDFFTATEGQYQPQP
Experimental: as §3

- inhibition at 0.5 µM (BRK): 9.33%
- inhibition at 0.5 µM (BTK): 40.2%
- inhibition at 0.5 µM (ABL1): 0%
- inhibition at 0.5 µM (Fyn A): 0%
- inhibition at 0.5 µM (Lyn B): 38%
- inhibition at 0.5 µM (Src): 26.3%
- inhibition at 0.5 µM (CSK): 34.2%
- inhibition at 0.5 µM (Lck): 9.93%
Compound: COc1ccccc1/C=C/c1nc(OS(=O)(=O)c2cc3c(cc2Br)OCO3)c2ccccc2n1 [BS2, 2-((E)-2-(2-methoxyphenyl)ethenyl)quinazolin-4-yl 6-bromo-1,3-benzodioxole-5-sulfonate]
- IC50 (NHDF cells): 15.7 ± 1.41 µM
- IC50 (K562 cells): 0.246 ± 0.055 µM
- Selectivity index, K562 (K562 cells): 63.70
- IC50 (HCT 116 p53^−/− cells): 1.31 ± 0.29 µM
- Selectivity index, HCT 116 p53 −/− (HCT 116 p53^−/− cells): 11.94
- PARP/Reference 89 kDa, densitometric intensity ratio (U-251 cells; U-251, 4µM, 24 h): 0.763
- caspase-9/Reference 37-35 kDa, densitometric intensity ratio (U-251 cells; U-251, 4µM, 24 h): 1.071
- BID/Reference 22 kDa, densitometric intensity ratio (U-251 cells; U-251, 4µM, 24 h): 0.701
- Cathepsin b/Reference 44 kDa, densitometric intensity ratio (U-251 cells; U-251, 4µM, 24 h): 1.805
- HIF-1α/Reference 120 kDa, densitometric intensity ratio (U-251 cells; U-251, 4µM, 24 h): 0.587
- PARP/Reference 116 kDa, densitometric intensity ratio (U-251 cells; U-251, 4µM, 24 h): 0.953
- caspase-9/Reference 47 kDa, densitometric intensity ratio (U-251 cells; U-251, 4µM, 24 h): 1.007
- cdc2/Reference 34 kDa, densitometric intensity ratio (U-251 cells; U-251, 4µM, 24 h): 2.272
- cyclin E1/Reference 48 kDa, densitometric intensity ratio (U-251 cells; U-251, 4µM, 24 h): 0.465
- p21/Reference 21 kDa, densitometric intensity ratio (U-251 cells; U-251, 4µM, 24 h): 2.205
- p53/Reference 53 kDa, densitometric intensity ratio (U-251 cells; U-251, 4µM, 24 h): 1.698
- Cathepsin b/Reference 27 kDa, densitometric intensity ratio (U-251 cells; U-251, 4µM, 24 h): 2.625
- Cathepsin b/Reference 22 kDa, densitometric intensity ratio (U-251 cells; U-251, 4µM, 24 h): 2.893
- PARP/Reference 89 kDa, densitometric intensity ratio (U-251 cells; U-251, 6µM, 24 h): 0.698
- caspase-9/Reference 37-35 kDa, densitometric intensity ratio (U-251 cells; U-251, 6µM, 24 h): 1.188
- BID/Reference 22 kDa, densitometric intensity ratio (U-251 cells; U-251, 6µM, 24 h): 1.227
- Cathepsin b/Reference 44 kDa, densitometric intensity ratio (U-251 cells; U-251, 6µM, 24 h): 2.641
- HIF-1α/Reference 120 kDa, densitometric intensity ratio (U-251 cells; U-251, 6µM, 24 h): 0.661
- PARP/Reference 116 kDa, densitometric intensity ratio (U-251 cells; U-251, 6µM, 24 h): 0.940
- caspase-9/Reference 47 kDa, densitometric intensity ratio (U-251 cells; U-251, 6µM, 24 h): 1.035
- cdc2/Reference 34 kDa, densitometric intensity ratio (U-251 cells; U-251, 6µM, 24 h): 2.282
- cyclin E1/Reference 48 kDa, densitometric intensity ratio (U-251 cells; U-251, 6µM, 24 h): 0.392
- p21/Reference 21 kDa, densitometric intensity ratio (U-251 cells; U-251, 6µM, 24 h): 2.783
- p53/Reference 53 kDa, densitometric intensity ratio (U-251 cells; U-251, 6µM, 24 h): 1.448
- Cathepsin b/Reference 27 kDa, densitometric intensity ratio (U-251 cells; U-251, 6µM, 24 h): 3.172
- Cathepsin b/Reference 22 kDa, densitometric intensity ratio (U-251 cells; U-251, 6µM, 24 h): 3.717
- IC50 (MCF-7 cells): 16.8 ± 2.06 µM
- Selectivity index, MCF-7 (MCF-7 cells): 0.93

- inhibition at 0.5 µM (BRK): 15.3%
- inhibition at 0.5 µM (BTK): 18.8%
- inhibition at 0.5 µM (ABL1): 28.4%
- inhibition at 0.5 µM (Fyn A): 23.7%
- inhibition at 0.5 µM (Lyn B): 0%
- inhibition at 0.5 µM (Src): 0.19%
- inhibition at 0.5 µM (CSK): 0%
- inhibition at 0.5 µM (Lck): 25.8%
Compound: COc1ccccc1/C=C/c1nc(OS(=O)(=O)c2ccc3c(c2)OCO3)c2ccccc2n1 [BS1, 2-((E)-2-(2-methoxyphenyl)ethenyl)quinazolin-4-yl 1,3-benzodioxole-5-sulfonate]
- IC50 (NHDF cells): 12.5 ± 0.855 µM
- IC50 (K562 cells): 0.172 ± 0.034 µM
- Selectivity index, K562 (K562 cells): 72.91
- IC50 (HCT 116 p53^−/− cells): 0.563 ± 0.121 µM
- Selectivity index, HCT 116 p53 −/− (HCT 116 p53^−/− cells): 22.27
- Cleavage product of caspase-9 (Western blot) (U-251 cells; U-251, 4 µM, 24 h): approximately three-fold increase
- PARP/Reference 89 kDa, densitometric intensity ratio (U-251 cells; U-251, 4µM, 24 h): 1.044
- caspase-9/Reference 37-35 kDa, densitometric intensity ratio (U-251 cells; U-251, 4µM, 24 h): 1.485
- BID/Reference 22 kDa, densitometric intensity ratio (U-251 cells; U-251, 4µM, 24 h): 0.675
- Cathepsin b/Reference 44 kDa, densitometric intensity ratio (U-251 cells; U-251, 4µM, 24 h): 2.467
- HIF-1α/Reference 120 kDa, densitometric intensity ratio (U-251 cells; U-251, 4µM, 24 h): 0.550
- PARP/Reference 116 kDa, densitometric intensity ratio (U-251 cells; U-251, 4µM, 24 h): 0.871
- caspase-9/Reference 47 kDa, densitometric intensity ratio (U-251 cells; U-251, 4µM, 24 h): 1.167
- cdc2/Reference 34 kDa, densitometric intensity ratio (U-251 cells; U-251, 4µM, 24 h): 1.986
- cyclin E1/Reference 48 kDa, densitometric intensity ratio (U-251 cells; U-251, 4µM, 24 h): 0.576
- p21/Reference 21 kDa, densitometric intensity ratio (U-251 cells; U-251, 4µM, 24 h): 1.932
- p53/Reference 53 kDa, densitometric intensity ratio (U-251 cells; U-251, 4µM, 24 h): 1.357
- Cathepsin b/Reference 27 kDa, densitometric intensity ratio (U-251 cells; U-251, 4µM, 24 h): 2.726
- Cathepsin b/Reference 22 kDa, densitometric intensity ratio (U-251 cells; U-251, 4µM, 24 h): 2.940
- HIF-1α protein expression (Western blot) (U-251 cells; U-251, 24 h): significant decrease
- p53 protein levels (Western blot) (U-251 cells; U-251, 24 h): slight increase
- IC50 (MCF-7 cells): 8.32 ± 1.94 µM
- Selectivity index, MCF-7 (MCF-7 cells): 1.51
